Assay [1] concerns neurons from hippocampi of E18 rat embryos. Nature of the assay: Neurite growth length (% NTL) in cultured E18 rat hippocampal neurons, 9-point dose response, 48 hours. It is filed as cell-based. Particulars: for activity at 0.078 µM / activity at 0.156 µM / activity at 0.312 µM / activity at 0.625 µM / activity at 1.25 µM / activity at 2.5 µM / activity at 5 µM / activity at 10 µM / activity at 20 µM: Rattus norvegicus, Neuron, 48 h. In outline: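 % NTL comes from automated neurite tracing of βIII-tubulin-stained cells, with 200–300 or more neurons per condition. Compounds were given in a 9-point dilution series (20 μM to 0.078125 μM) for 48 h. Cells were trypsin-dissociated E18 rat hippocampal neurons plated at 1500/well on poly-D-lysine.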

Assay [2] concerns Primary Neurons. Nature of the assay: HCS neurite outgrowth assay (High Content Screening with Primary Neurons). Format: cell-based.

Where two headings read alike, the source gives them in different places.

The term EC50 denotes the concentration at which the effect is half-maximal. Low readings indicate a more potent agent, high ones a less potent agent. As to `Nc1nccc(C(=O)N[C@@H]2CNC[C@H]2NC(=O)c2ccc(C(=O)c3c(O)cccc3F)cc2)n1` [Example A50, 2-amino-N-[(3R,4R)-4-[4-(2-fluoro-6-hydroxybenzoyl)benzamido]pyrrolidin-3-yl]pyrimidine-4-carboxamide], the activity at 0.078 µM in assay [1] (78 nM) was 113%. In assay [1] (156 nM), the activity at 0.156 µM was 113%. Moreover, in assay [1] (312 nM), the activity at 0.312 µM worked out at 118%. Further, the activity at 0.625 µM in assay [1] (625 nM) worked out at 136%. In addition, the activity at 1.25 µM in assay [1] (1.25 μM) stood at 194%. The activity at 2.5 µM in assay [1] (2.5 μM) worked out at 285%. In addition, the activity at 5 µM in assay [1] (5 μM) was found to be 431%. Besides, the activity at 10 µM in assay [1] (10 μM) is 561%. Further, the activity at 20 µM in assay [1] (20 μM) was determined as 457%. The EC50 in assay [2] (Primary neuron) worked out at 3.6 µM.

`O=C(Nc1ccncc1NC(=O)c1ccncc1)c1ccc(C(=O)c2ccccc2)cc1` [Example A3, N-[4-(4-benzoylbenzamido)pyridin-3-yl]pyridine-4-carboxamide]: the activity at 0.078 µM in assay [1] (78 nM) is 98.3%. The activity at 0.156 µM in assay [1] (156 nM) turned out to be 99.9%. The activity at 0.312 µM in assay [1] (312 nM) worked out at 96.3%. Also, in assay [1] (625 nM), the activity at 0.625 µM was 92.6%. Moreover, the activity at 1.25 µM in assay [1] (1.25 μM) was found to be 96.7%. Besides, the activity at 2.5 µM in assay [1] (2.5 μM) came out at 95.1%. Further, the activity at 5 µM in assay [1] (5 μM) was determined as 93.6%. Moreover, in assay [1] (10 μM), the activity at 10 µM came to 92.9%. Also, the activity at 20 µM in assay [1] (20 μM) was 96.6%. Further, the half-maximal effective concentration (EC50) in assay [2] (Primary neuron) was determined as 0.798 µM.

Take `COc1ccc(O)c(C(=O)c2ccc(C(=O)NCCNC(=O)c3ccncc3)cc2)c1F` [Example A27, 4-(2-fluoro-6-hydroxy-3-methoxybenzoyl)-N-{2-[(pyridin-4-yl)formamido]ethyl}benzamide]: the activity at 0.078 µM in assay [1] (78 nM) was found to be 103%. Further, the activity at 0.156 µM in assay [1] (156 nM) is 101%. Also, in assay [1] (312 nM), the activity at 0.312 µM came out at 107%. Further, the activity at 0.625 µM in assay [1] (625 nM) came to 118%. The activity at 1.25 µM in assay [1] (1.25 μM) is 110%. The activity at 2.5 µM in assay [1] (2.5 μM) was 105%. Moreover, in assay [1] (5 μM), the activity at 5 µM was found to be 117%. In addition, in assay [1] (10 μM), the activity at 10 µM stood at 141%. Besides, the activity at 20 µM in assay [1] (20 μM) is 150%. Further, a half-maximal effect in assay [2] (Primary neuron) (EC50) was put at 7.9 µM.

Turning to `COc1ccc(O)c(C(=O)c2ccc(C(=O)N[C@@H]3CNC[C@H]3NC(=O)c3ccnc(N)n3)cc2)c1` [Example A76, 2-amino-N-[(3R,4R)-4-[4-(2-hydroxy-5-methoxybenzoyl)benzamido]pyrrolidin-3-yl]pyrimidine-4-carboxamide], the activity at 0.078 µM in assay [1] (78 nM) was 131%. In assay [1] (156 nM), the activity at 0.156 µM was determined as 121%. Moreover, the activity at 0.312 µM in assay [1] (312 nM) came to 140%. For the same compound, the activity at 0.625 µM in assay [1] (625 nM) was 156%. Besides, the activity at 1.25 µM in assay [1] (1.25 μM) came out at 169%. In addition, the activity at 2.5 µM in assay [1] (2.5 μM) was 207%. In addition, the activity at 5 µM in assay [1] (5 μM) worked out at 317%. Besides, the activity at 10 µM in assay [1] (10 μM) was determined as 558%. Moreover, the activity at 20 µM in assay [1] (20 μM) came to 692%. The midpoint of the response in assay [2] (Primary neuron), the EC50, lay at 8.37 µM.

With `COc1ccc(OC)c(C(=O)c2ccc(C(=O)Nc3ccccc3NC(=O)c3ccncc3)cc2)c1F` [Example A4, N-{2-[4-(2-fluoro-3,6-dimethoxybenzoyl)benzamido]phenyl}pyridine-4-carboxamide], the activity at 0.078 µM in assay [1] (78 nM) was found to be 102%. Further, in assay [1] (156 nM), the activity at 0.156 µM stood at 99%. Also, the activity at 0.312 µM in assay [1] (312 nM) turned out to be 110%. Further, the activity at 0.625 µM in assay [1] (625 nM) came out at 93.2%. Moreover, the activity at 1.25 µM in assay [1] (1.25 μM) amounted to 105%. Also, the activity at 2.5 µM in assay [1] (2.5 μM) turned out to be 114%. Moreover, the activity at 5 µM in assay [1] (5 μM) worked out at 114%. Further, the activity at 10 µM in assay [1] (10 μM) was determined as 132%. In addition, the activity at 20 µM in assay [1] (20 μM) worked out at 161%. Moreover, the EC50 in assay [2] (Primary neuron) worked out at 9.64 µM.

Regarding `COc1ccc(O)c(C(O)c2ccc(C(=O)N[C@@H]3CNC[C@H]3NC(=O)c3ccncc3)cc2)c1F` (stereo partly drawn) [Example A59, N-[(3R,4R)-4-{4-[(2-fluoro-6-hydroxy-3-methoxyphenyl)(hydroxy)methyl]benzamido}pyrrolidin-3-yl]pyridine-4-carboxamide], in assay [1] (78 nM), the activity at 0.078 µM worked out at 91.9%. Besides, the activity at 0.156 µM in assay [1] (156 nM) worked out at 82.8%. For the same compound, the activity at 0.312 µM in assay [1] (312 nM) stood at 73.6%. The activity at 0.625 µM in assay [1] (625 nM) came to 82.3%. Further, in assay [1] (1.25 μM), the activity at 1.25 µM was 76.7%. In addition, the activity at 2.5 µM in assay [1] (2.5 μM) worked out at 91.2%. Further, the activity at 5 µM in assay [1] (5 μM) was 95.4%. Also, the activity at 10 µM in assay [1] (10 μM) was determined as 111%. Besides, the activity at 20 µM in assay [1] (20 μM) turned out to be 106%. This compound showed an EC50 in assay [2] (Primary neuron) of 7.13 µM.

Consider `COc1ccc(O)c(C(=O)c2ccc(C(=O)N[C@@H]3CNC[C@H]3NC(=O)c3ccc4c(c3)CC(=O)N4)cc2)c1F` [Example A35, N-[(3R,4R)-4-[4-(2-fluoro-6-hydroxy-3-methoxybenzoyl)benzamido]pyrrolidin-3-yl]-2-oxo-2,3-dihydro-1H-indole-5-carboxamide], for which the activity at 0.078 µM in assay [1] (78 nM) was 91.8%. Also, the activity at 0.156 µM in assay [1] (156 nM) stood at 90.1%. In assay [1] (312 nM), the activity at 0.312 µM was determined as 86.3%. Also, the activity at 0.625 µM in assay [1] (625 nM) worked out at 89.3%. Further, the activity at 1.25 µM in assay [1] (1.25 μM) came out at 86.9%. For the same compound, in assay [1] (2.5 μM), the activity at 2.5 µM came to 95%. Moreover, the activity at 5 µM in assay [1] (5 μM) stood at 97.2%. For the same compound, the activity at 10 µM in assay [1] (10 μM) was 96.7%. The activity at 20 µM in assay [1] (20 μM) is 107%. This compound also showed an EC50 in assay [2] (Primary neuron) of 0.163 µM.

Take `COc1ccc(O)c(C(=O)c2ccc(C(=O)N[C@@H]3CNC[C@H]3NC(=O)c3ccc(O)cc3)cc2)c1F` [Example A37, N-[(3R,4R)-4-[4-(2-fluoro-6-hydroxy-3-methoxybenzoyl)benzamido]pyrrolidin-3-yl]-4-hydroxybenzamide]: the activity at 0.078 µM in assay [1] (78 nM) was 100%. In assay [1] (156 nM), the activity at 0.156 µM was 109%. For the same compound, the activity at 0.312 µM in assay [1] (312 nM) amounted to 113%. Further, the activity at 0.625 µM in assay [1] (625 nM) was 107%. The activity at 1.25 µM in assay [1] (1.25 μM) is 113%. In addition, in assay [1] (2.5 μM), the activity at 2.5 µM was found to be 124%. Also, the activity at 5 µM in assay [1] (5 μM) worked out at 132%. For the same compound, in assay [1] (10 μM), the activity at 10 µM was found to be 155%. For the same compound, the activity at 20 µM in assay [1] (20 μM) turned out to be 212%. In addition, in assay [2] (Primary neuron), the EC50 was more than 20 µM.

With `COc1ccc(O)c(C(=O)c2ccc(C(=O)NC3CNC[C@H]3NC(=O)c3ccncc3)cc2)c1F` (stereo in doubt) [Example A32, N-[(3R,4S)-4-[4-(2-fluoro-6-hydroxy-3-methoxybenzoyl)benzamido]pyrrolidin-3-yl]pyridine-4-carboxamide], the “neurite growth length (% NTL)” value is listed as 98.72 % NTL in assay [1] (78 nM); 86.89 % NTL in assay [1] (156 nM); 88.20 % NTL in assay [1] (312 nM); 84.61 % NTL in assay [1] (625 nM); 81.36 % NTL in assay [1] (1.25 μM); 90.59 % NTL in assay [1] (2.5 μM). Further, the “neurite growth length (% NTL)” value in assay [1] (5 μM) worked out at 88.24 % NTL; in assay [1] (10 μM), 82.90 % NTL; in assay [1] (20 μM), 86.59 % NTL. This compound also showed an EC50 in assay [2] of more than 20 µM.

In the case of `Cc1ccc(C(=O)c2ccc(C(=O)N[C@@H]3CNC[C@H]3NC(=O)c3ccnc(N)n3)cc2)c(O)c1` [Example A80, 2-amino-N-[(3R,4R)-4-[4-(2-hydroxy-4-methylbenzoyl)benzamido]pyrrolidin-3-yl]pyrimidine-4-carboxamide], the activity at 0.078 µM in assay [1] (78 nM) was 125%. Also, the activity at 0.156 µM in assay [1] (156 nM) worked out at 124%. Further, in assay [1] (312 nM), the activity at 0.312 µM turned out to be 141%. The activity at 0.625 µM in assay [1] (625 nM) was found to be 158%. Besides, the activity at 1.25 µM in assay [1] (1.25 μM) worked out at 178%. Moreover, the activity at 2.5 µM in assay [1] (2.5 μM) came to 221%. The activity at 5 µM in assay [1] (5 μM) was determined as 203%. Also, in assay [1] (10 μM), the activity at 10 µM was 160%. Besides, the activity at 20 µM in assay [1] (20 μM) is 155%. Moreover, it took 0.534 µM to reach a half-maximal effect in assay [2] (Primary neuron) (EC50).

The record behind these values is US11926613B2, “Kinase inhibitors for the treatment of central and peripheral nervous system disorders” (UNIVERSITY OF MIAMI, priority 2017, dated 2024).
